Assay results as given in PubChem BioAssay AID248 (DTP/NCI, 2004).
“And” between values parts separate entries of the source, which are not always exact repeats. Equal values may be shown once. Inconclusive results and toxic doses are left out.

Tested on: L1210 leukemia ip in BDF1 mice, survival T/C
Test: NCI In Vivo Anticancer Drug Screen. Data for tumor model L1210 Leukemia (intraperitoneal) in B6D2F1 (BDF1) mice
Settings: higher = longer survival
How it was run: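 Read-out is survival time, reported as the treated-group measurement over the vehicle-control measurement.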

Compound: Nc1nc(=S)c2[nH]cnc2[nH]1
- T/C (endpoint: mean survival time, dose: 0.04 mg/kg/injection, schedule: Q01DX Z (ip), vehicle: carboxymethylcellulose (CMC)): 113 % of control
- T/C (endpoint: mean survival time, dose: 0.06 mg/kg/injection, schedule: Q01DX009 (ip), vehicle: alkali diluted with saline): 106 % of control and 108 % of control
- T/C (endpoint: mean survival time, dose: 0.06 mg/kg/injection, schedule: Q01DX Z (ip), vehicle: carboxymethylcellulose (CMC)): 105 % of control
- T/C (endpoint: mean survival time, dose: 0.06 mg/kg/injection, schedule: Q#A X Z (ip), vehicle: saline): 121 % of control
- T/C (endpoint: mean survival time, dose: 0.09 mg/kg/injection, schedule: Q01DX Z (ip), vehicle: carboxymethylcellulose (CMC)): 109 % of control
- T/C (endpoint: mean survival time, dose: 0.12 mg/kg/injection, schedule: Q01DX009 (ip), vehicle: alkali diluted with saline): 111 % of control
- T/C (endpoint: mean survival time, dose: 0.13 mg/kg/injection, schedule: Q01DX Z (ip), vehicle: saline): 111 % of control
- T/C (endpoint: mean survival time, dose: 0.13 mg/kg/injection, schedule: Q01DX Z (sc), vehicle: saline): 107 % of control
- T/C (endpoint: mean survival time, dose: 0.14 mg/kg/injection, schedule: Q01DX Z (ip), vehicle: carboxymethylcellulose (CMC)): 110 % of control
- T/C (endpoint: mean survival time, dose: 0.22 mg/kg/injection, schedule: Q01DX Z (ip), vehicle: carboxymethylcellulose (CMC)): 115 % of control
- T/C (endpoint: mean survival time, dose: 0.22 mg/kg/injection, schedule: Q07DX003 (ip), vehicle: saline): 113 % of control
- T/C (endpoint: mean survival time, dose: 0.25 mg/kg/injection, schedule: Q01DX Z (sc), vehicle: saline): 116 % of control
- T/C (endpoint: mean survival time, dose: 0.33 mg/kg/injection, schedule: Q01DX015 (ip), vehicle: alkali diluted with saline): 102 % of control
- T/C (endpoint: mean survival time, dose: 0.33 mg/kg/injection, schedule: Q01DX Z (ip), vehicle: carboxymethylcellulose (CMC)): 119 % of control
- T/C (endpoint: mean survival time, dose: 0.37 mg/kg/injection, schedule: Q03DX006 (ip), vehicle: saline): 114 % of control
- T/C (endpoint: mean survival time, dose: 0.43 mg/kg/injection, schedule: Q01DX009 (ip), vehicle: alkali diluted with saline): 152 % of control
- T/C (endpoint: mean survival time, dose: 0.44 mg/kg/injection, schedule: Q07DX003 (ip), vehicle: saline): 122 % of control
- T/C (endpoint: mean survival time, dose: 0.5 mg/kg/injection, schedule: Q01DX006 (iv), vehicle: saline): 106 % of control
- T/C (endpoint: mean survival time, dose: 0.5 mg/kg/injection, schedule: Q01DX Z (im), vehicle: saline): 109 % of control
- T/C (endpoint: mean survival time, dose: 0.5 mg/kg/injection, schedule: Q01DX Z (ip), vehicle: carboxymethylcellulose (CMC)): 111 % of control
- T/C (endpoint: mean survival time, dose: 0.5 mg/kg/injection, schedule: Q01DX Z (oral), vehicle: saline): 113 % of control
- T/C (endpoint: mean survival time, dose: 0.55 mg/kg/injection, schedule: Q01DX015 (ip), vehicle: alkali diluted with saline): 151 % of control
- T/C (endpoint: mean survival time, dose: 0.55 mg/kg/injection, schedule: Q## X015 (ip), vehicle: alkali diluted with saline): 151 % of control
- T/C (endpoint: mean survival time, dose: 0.75 mg/kg/injection, schedule: Q03DX006 (ip), vehicle: saline): 118 % of control
- T/C (endpoint: mean survival time, dose: 0.88 mg/kg/injection, schedule: Q01DX001 (ip), vehicle: saline): 115 % of control
- T/C (endpoint: mean survival time, dose: 0.88 mg/kg/injection, schedule: Q03HX016 (ip), vehicle: alkali diluted with saline): 150 % of control
- T/C (endpoint: mean survival time, dose: 0.88 mg/kg/injection, schedule: Q03HX024 (ip), vehicle: alkali diluted with saline): 152 % of control
- T/C (endpoint: mean survival time, dose: 0.9 mg/kg/injection, schedule: Q01DX015 (ip), vehicle: alkali diluted with saline): 152 % of control
- T/C (endpoint: mean survival time, dose: 1.0 mg/kg/injection, schedule: Q01DX006 (iv), vehicle: saline): 112 % of control
- T/C (endpoint: mean survival time, dose: 1.0 mg/kg/injection, schedule: Q01DX Z (ip), vehicle: carboxymethylcellulose (CMC)): 152 % of control
- T/C (endpoint: mean survival time, dose: 1.0 mg/kg/injection, schedule: Q01DX Z (oral), vehicle: saline): 116 % of control
- T/C (endpoint: mean survival time, dose: 1.2 mg/kg/injection, schedule: Q03HX032 (ip), vehicle: alkali diluted with saline): 151 % of control and 152 % of control
- T/C (endpoint: mean survival time, dose: 1.5 mg/kg/injection, schedule: Q03DX006 (ip), vehicle: saline): 154 % of control
- T/C (endpoint: mean survival time, dose: 1.75 mg/kg/injection, schedule: Q01DX001 (ip), vehicle: saline): 109 % of control
- T/C (endpoint: mean survival time, dose: 1.8 mg/kg/injection, schedule: Q04DX002 (ip), vehicle: alkali diluted with saline): 110 % of control
- T/C (endpoint: mean survival time, dose: 2.0 mg/kg/injection, schedule: Q01DX Z (sc), vehicle: saline): 153 % of control
- T/C (endpoint: mean survival time, dose: 2.5 mg/kg/injection, schedule: Q01DX010 (ip), vehicle: other): 123 % of control
- T/C (endpoint: mean survival time, dose: 3.5 mg/kg/injection, schedule: Q01DX001 (ip), vehicle: saline): 109 % of control and 120 % of control
- T/C (endpoint: mean survival time, dose: 3.5 mg/kg/injection, schedule: Q04DX008 (ip), vehicle: alkali diluted with saline): 154 % of control
- T/C (endpoint: mean survival time, dose: 3.7 mg/kg/injection, schedule: Q01DX Z (ip), vehicle: carboxymethylcellulose (CMC)): 110 % of control
- T/C (endpoint: mean survival time, dose: 4.0 mg/kg/injection, schedule: Q01DX Z (im), vehicle: saline): 119 % of control
- T/C (endpoint: mean survival time, dose: 4.0 mg/kg/injection, schedule: Q01DX Z (ip), vehicle: carboxymethylcellulose (CMC)): 93 % of control
- T/C (endpoint: mean survival time, dose: 4.0 mg/kg/injection, schedule: Q01DX Z (sc), vehicle: saline): 106 % of control
- T/C (endpoint: mean survival time, dose: 5.0 mg/kg/injection, schedule: Q01DX010 (ip), vehicle: other): 98 % of control and 104 % of control
- T/C (endpoint: mean survival time, dose: 5.3 mg/kg/injection, schedule: Q04DX012 (ip), vehicle: alkali diluted with saline): 153 % of control
- T/C (endpoint: mean survival time, dose: 6.0 mg/kg/injection, schedule: Q01DX Z (ip), vehicle: carboxymethylcellulose (CMC)): 98 % of control
- T/C (endpoint: mean survival time, dose: 7.0 mg/kg/injection, schedule: Q01DX001 (ip), vehicle: saline): 104 % of control and 122 % of control
- T/C (endpoint: mean survival time, dose: 8.0 mg/kg/injection, schedule: Q01DX Z (ip), vehicle: carboxymethylcellulose (CMC)): 106 % of control
- T/C (endpoint: mean survival time, dose: 8.0 mg/kg/injection, schedule: Q04DX008 (ip), vehicle: alkali diluted with saline): 154 % of control
- T/C (endpoint: mean survival time, dose: 8.0 mg/kg/injection, schedule: Q07DX008 (ip), vehicle: alkali diluted with saline): 153 % of control
- T/C (endpoint: mean survival time, dose: 8.3 mg/kg/injection, schedule: Q01DX Z (ip), vehicle: carboxymethylcellulose (CMC)): 94 % of control
- T/C (endpoint: mean survival time, dose: 9.0 mg/kg/injection, schedule: Q01DX Z (ip), vehicle: carboxymethylcellulose (CMC)): 96 % of control
- T/C (endpoint: mean survival time, dose: 10.0 mg/kg/injection, schedule: Q01DX010 (ip), vehicle: other): 115 % of control
- T/C (endpoint: mean survival time, dose: 12.0 mg/kg/injection, schedule: Q04DX004 (ip), vehicle: alkali diluted with saline): 152 % of control
- T/C (endpoint: mean survival time, dose: 12.0 mg/kg/injection, schedule: Q04DX006 (ip), vehicle: alkali diluted with saline): 151 % of control
- T/C (endpoint: mean survival time, dose: 13.0 mg/kg/injection, schedule: Q01DX001 (ip), vehicle: carboxymethylcellulose (CMC)): 152 % of control
- T/C (endpoint: mean survival time, dose: 16.0 mg/kg/injection, schedule: Q01DX Z (sc), vehicle: saline): 106 % of control
- T/C (endpoint: mean survival time, dose: 20.0 mg/kg/injection, schedule: Q01DX001 (ip), vehicle: alkali diluted with saline): 153 % of control
- T/C (endpoint: mean survival time, dose: 20.0 mg/kg/injection, schedule: Q04DX003 (ip), vehicle: alkali diluted with saline): 154 % of control
- T/C (endpoint: mean survival time, dose: 24.0 mg/kg/injection, schedule: Q03DX006 (ip), vehicle: saline): 107 % of control
- T/C (endpoint: mean survival time, dose: 24.0 mg/kg/injection, schedule: Q07DX003 (ip), vehicle: saline): 152 % of control
- T/C (endpoint: mean survival time, dose: 24.0 mg/kg/injection, schedule: Q## X008 (ip), vehicle: alkali diluted with saline): 116 % of control
- T/C (endpoint: mean survival time, dose: 24.0 mg/kg/injection, schedule: Q## X024 (ip), vehicle: alkali diluted with saline): 102 % of control
- T/C (endpoint: mean survival time, dose: 27.0 mg/kg/injection, schedule: Q07DX004 (ip), vehicle: alkali diluted with saline): 153 % of control
- T/C (endpoint: mean survival time, dose: 30.0 mg/kg/injection, schedule: Q04DX003 (ip), vehicle: alkali diluted with saline): 150 % of control
- T/C (endpoint: mean survival time, dose: 36.0 mg/kg/injection, schedule: Q## X016 (ip), vehicle: alkali diluted with saline): 105 % of control
- T/C (endpoint: mean survival time, dose: 36.0 mg/kg/injection, schedule: Q## X024 (ip), vehicle: alkali diluted with saline): 98 % of control
- T/C (endpoint: mean survival time, dose: 40.0 mg/kg/injection, schedule: Q07DX004 (ip), vehicle: alkali diluted with saline): 152 % of control
- T/C (endpoint: mean survival time, dose: 50.0 mg/kg/injection, schedule: Q01DX001 (ip), vehicle: saline): 118 % of control
- T/C (endpoint: mean survival time, dose: 54.0 mg/kg/injection, schedule: Q## X008 (ip), vehicle: alkali diluted with saline): 105 % of control
- T/C (endpoint: mean survival time, dose: 54.0 mg/kg/injection, schedule: Q## X016 (ip), vehicle: alkali diluted with saline): 97 % of control
- T/C (endpoint: mean survival time, dose: 60.0 mg/kg/injection, schedule: Q07DX004 (ip), vehicle: alkali diluted with saline): 152 % of control
- T/C (endpoint: mean survival time, dose: 67.0 mg/kg/injection, schedule: Q01DX001 (ip), vehicle: alkali diluted with saline): 152 % of control
- T/C (endpoint: mean survival time, dose: 80.0 mg/kg/injection, schedule: Q01DX001 (ip), vehicle: alkali diluted with saline): 150 % of control
- T/C (endpoint: mean survival time, dose: 90.0 mg/kg/injection, schedule: Q07DX004 (ip), vehicle: alkali diluted with saline): 120 % of control
- T/C (endpoint: mean survival time, dose: 90.0 mg/kg/injection, schedule: Q07DX006 (ip), vehicle: alkali diluted with saline): 118 % of control
- T/C (endpoint: mean survival time, dose: 96.0 mg/kg/injection, schedule: Q07DX003 (ip), vehicle: saline): 103 % of control
- T/C (endpoint: mean survival time, dose: 100.0 mg/kg/injection, schedule: Q01DX001 (ip), vehicle: alkali diluted with saline): 150 % of control
- T/C (endpoint: mean survival time, dose: 100.0 mg/kg/injection, schedule: Q01DX001 (ip), vehicle: saline): 112 % of control
- T/C (endpoint: mean survival time, dose: 106.0 mg/kg/injection, schedule: Q04DX002 (ip), vehicle: alkali diluted with saline): 98 % of control
- T/C (endpoint: mean survival time, dose: 112.0 mg/kg/injection, schedule: Q01DX001 (ip), vehicle: saline): 98 % of control
- T/C (endpoint: mean survival time, dose: 150.0 mg/kg/injection, schedule: Q01DX001 (ip), vehicle: alkali diluted with saline): 103 % of control
- T/C (endpoint: mean survival time, dose: 448.0 mg/kg/injection, schedule: Q01DX001 (ip), vehicle: saline): 119 % of control
- T/C (endpoint: mean survival time, dose: 16.0 micrograms/kg/injection, schedule: Q01DX015 (ip), vehicle: alkali diluted with saline): 100 % of control
- T/C (endpoint: mean survival time, dose: 32.0 micrograms/kg/injection, schedule: Q01DX015 (ip), vehicle: alkali diluted with saline): 107 % of control
- T/C (endpoint: mean survival time, dose: 63.0 micrograms/kg/injection, schedule: Q01DX015 (ip), vehicle: alkali diluted with saline): 107 % of control
- T/C (endpoint: mean survival time, dose: 125.0 micrograms/kg/injection, schedule: Q01DX015 (ip), vehicle: alkali diluted with saline): 116 % of control
- T/C (endpoint: mean survival time, dose: 196.0 micrograms/kg/injection, schedule: Q01DX Z (ip), vehicle: carboxymethylcellulose (CMC)): 122 % of control
- T/C (endpoint: mean survival time, dose: 250.0 micrograms/kg/injection, schedule: Q01DX015 (ip), vehicle: alkali diluted with saline): 103 % of control
- T/C (endpoint: median survival time, dose: 4.0 mg/kg/injection, schedule: Q01DX009 (ip), vehicle: other): 150 % of control
- T/C (endpoint: median survival time, dose: 16.0 mg/kg/injection, schedule: Q01DX009 (ip), vehicle: other): 116 % of control
